Data published in patent publication US20130023563A1, “AMIDINOANILINE DERIVATIVE” (AJINOMOTO CO., INC., priority 2010, published 2013).
Counter-ions that a name gives are not always drawn.

Key:
FXa = FXa (Homo sapiens, UniProt P00742); assay: Measurement of inhibitory activity against activated factor X (chromogenic substrate S-2222); format: biochemical; details: 0.015 U/ml FXa, 0.2 mM S-2222, absorbance 405 nm; read-out: FXa (pIC50) (converted)
Procedure: Experimental Example 1 Measurement of Inhibitory Activity Against Activated Factor X Activity
(§1) Using a 96-well plate (#3396, Costar), 100 mM Tris-HC1 buffer (130 μL) containing 0.02% Tween 20, 0.1% PEG6000 and 0.2M NaCl was admixed with 0.015 U/ml FXa (10 μL) and a test compound (10 μL) for 10 min and a color developing substrate 0.2 mM S-2222 (50 μL) was added. Using a microplate reader Benchmark Plus (BIO-RAD), the reaction rate was measured from the time course changes at absorbance 405 nm. Using the reaction rate of the control as 100%, the negative logarithmic value of the concentration that can suppress the reaction rate of the control by 50% was taken as the pIC50 value.

human plasma [1] = assay: Anti-blood coagulant activity, aPTT method, Sysmex Cs-2000i (Experimental Example 3-2); format: biochemical; details: negative logarithmic value of the concentration that prolongs aPTT of the control 2 times
Procedure: Experimental Example 3-2 Measurement of Anti-Blood Coagulant Activity
(§2) An aPTT measurement method using totally automatic blood coagulation time measuring apparatus Sysmex Cs-2000i was used. A 10 mg/ml DDVP solution (DDVP standard product, Wako) (8 μL) and a test compound solution (40 μL) were placed in a sample tube (MS-18, Japan Medical Science), human plasma (standard human plasma for blood coagulation test, GCH-100A, Sysmex) (360 μL) was added and the mixture was used as a test sample. The test sample (50 μL) was incubated at 37° C. for 1 min, data fi APTT (rabbit brain-derived cephalin, DADE Behiring) (50 μL) was added, and the mixture was further incubated at 37° C. for 2 min. To the sample solution was added 0.02M calcium chloride (50 μL), and the time until plasma coagulation was automatically measured.
(§3) As the anti-blood coagulant activity, the negative logarithmic value of the concentration that prolongs aPTT of the control 2 times is shown as paPTT2.

[2] = Evaluation of stability in plasma; format: in vitro ADME; details: human plasma, 37° C., read-out: T½
Procedure: Experimental Example 4 Evaluation of stability in plasma
To human plasma (495 μL) was added 5 μL from a solution of the test compound prepared to 200 μM (final drug solution concentration 2 μM), and the mixture was incubated at 37° C. At 0 min, 1 min, 2 min, 5 min and 10 min from the addition of the drug solution, 50 μL each was sampled, 0.1 mg/ml DDVP-containing acetonitrile (350 μL) was added, and the reaction was discontinued by blending them. After discontinuation of the reaction, a deproteination treatment was performed by a centrifugation operation at 15000 rpm for 5 min. The centrifugation supernatant (350 μL) was dried to solidness, concentrated, dissolved in aqueous solution (100 μL) of 20% acetonitrile and 0.1% formic acid and the mixture was subjected to the measurement by LC/MS/MS.
The half-life (T1/2) was calculated using initial 3rd-4th time points.

[3] = Evaluation of stability in liver S9 fraction; format: in vitro ADME; details: human liver S9 fraction 2 mg/mL, 2 μM, 37° C.
Procedure: Experimental Example 5 Evaluation of Stability in Liver S9 Fraction
Metabolism reaction mixed solution (0.1 mM EDTA-100 mM potassium phosphate buffer (pH 7.4), 2 mg/mL human liver S9 fraction, 0.5 mM oxidized nicotinamide adenine dinucleotide phosphate, 5 mM glucose-6-phosphoric acid, 1 unit/mL glucose-6-phosphate dehydrogenase) was pre-warmed at 37° C. for 5 min. After pre-warming, DMSO solution of the substrate was added such that the concentration of the final drug solution was 2 μM, and the metabolism reaction was started at 37° C. A given amount was sampled at 0 min, 5 min, 10 min and 30 min from the start of the reaction, 0.1 mg/mL dichlorvos-containing acetonitrile was added, and blended to discontinue the reaction. After discontinuation of the reaction, a deproteination treatment was performed by a centrifugation operation at 15000 rpm for 5 min. To the centrifugation supernatant was added 0.3% aqueous formic acid solution, admixed and the mixture was subjected to the measurement by LC/MS/MS. Then, as the residual ratio (%) at 30 min later, the ratio relative to the concentration at 0 min was calculated.

[4] = molecular target: activated factor IIa (thrombin) (Homo sapiens, UniProt P00734); assay: Measurement of inhibitory activity against activated factor II (chromogenic substrate S-2238); format: biochemical; details: 0.125 U/ml thrombin, 0.1 mM S-2238, absorbance 405 nm; read-out: FIIa (pIC50) (converted)
Procedure: Experimental Example 2 Measurement of Inhibitory Activity Against Activated Factor II (FIIa, Thrombin)
as §1, with “mM Tris-HCl” for “mM Tris-HC1”, “with 0.125” for “with 0.015”, “U/ml activated factor IIa (thrombin)” for “U/ml FXa”, “substrate 0.1” for “substrate 0.2”, “mM S-2238” for “mM S-2222”

human plasma [5] = assay: Anti-blood coagulant activity, aPTT method, Sysmex CA-1500 (Experimental Example 3-1); format: biochemical; details: negative logarithmic value of the concentration that prolongs aPTT of the control 2 times
Procedure: Experimental Example 3-1 Measurement of Anti-Blood Coagulant Activity
Examples 1, 8, 9, 11, 13, 16-19 and 22 were measured according to the following method.
as §2, with “CA-1500” for “Cs-2000i”, “(4” for “(8”, “(20” for “(40”, “(180” for “(360”
as §3

Chain of FXa (P00742 235-488 limits assumed): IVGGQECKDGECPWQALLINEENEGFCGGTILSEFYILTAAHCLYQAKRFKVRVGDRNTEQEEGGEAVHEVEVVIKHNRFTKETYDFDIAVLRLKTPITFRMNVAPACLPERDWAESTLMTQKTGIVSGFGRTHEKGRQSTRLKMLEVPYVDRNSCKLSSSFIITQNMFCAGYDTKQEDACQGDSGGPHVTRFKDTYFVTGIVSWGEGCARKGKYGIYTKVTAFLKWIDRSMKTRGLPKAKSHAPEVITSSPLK
Chain of FXa (P00742 41-179 partner limits assumed): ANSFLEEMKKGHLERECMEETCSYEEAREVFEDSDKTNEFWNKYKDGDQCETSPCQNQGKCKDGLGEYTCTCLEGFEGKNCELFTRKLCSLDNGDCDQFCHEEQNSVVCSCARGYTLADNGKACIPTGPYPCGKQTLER

C[C@@H](C(=O)Oc1ccc(C(=N)N2CCCC2)cc1)N(C)c1cccc(C(=N)N)c1 [compound of Ex. 4, 4-[imino(pyrrolidin-1-yl)methyl]phenyl N-{3-[amino(imino)methyl]phenyl}-N-methyl-L-alaninate 2 trifluoroacetate]
IC50 (FXa): 13.5 nM | paPTT2 (human plasma [1]): 6.89 | half-life at 2 μM [2]: 4 min | residual ratio (%) of liver S9 fraction 30 min later [3]: 57% | IC50 [4]: 83200 nM

C[C@H](C(=O)Oc1ccc(C(=N)N2CCCC2)cc1)N(C)c1cccc(C(=N)N)c1 [compound of Ex. 5, 4-[imino(pyrrolidin-1-yl)methyl]phenyl N-{3-[amino(imino)methyl]phenyl}-N-methyl-D-alaninate 2 trifluoroacetate]
IC50 (FXa): 20 nM | paPTT2 (human plasma [1]): 6.26 | half-life at 2 μM [2]: 3.7 min | residual ratio (%) of liver S9 fraction 30 min later [3]: 64% | IC50 [4]: 38000 nM

CC(=N)N1CCC(Oc2ccc(OC(=O)[C@H]3CCCN3c3cccc(C(=N)N)c3)cc2)CC1 [compound of Ex. 11, 4-[(1-ethanimidoylpiperidin-4-yl)oxy]phenyl 1-{3-[amino(imino)methyl]phenyl}-D-prolinate 2 trifluoroacetate]
IC50 (FXa): 105 nM | paPTT2 (human plasma [5]): 6.25 | half-life at 2 μM [2]: < 1 min | residual ratio (%) of liver S9 fraction 30 min later [3]: 85% | IC50 [4]: 347 nM

N=C(N)c1cccc(N2C[C@H](OCc3ccccc3)C[C@H]2C(=O)Oc2ccc(C(=N)N3CCCC3)cc2)c1 [compound of Ex. 13, 4-[imino(pyrrolidin-1-yl)methyl]phenyl (4R)-1-{3-[amino(imino)methyl]phenyl}-4-(benzyloxy)-L-prolinate 2 trifluoroacetate]
IC50 (FXa): 339 nM | paPTT2 (human plasma [5]): 5.59 | half-life at 2 μM [2]: 8.2 min | residual ratio (%) of liver S9 fraction 30 min later [3]: 86% | IC50 [4]: 288 nM

N=C(N)c1cccc(N2CCC[C@H]2COC(=O)c2ccc(C(=N)N3CCCC3)cc2)c1 [compound of Ex. 22, ((2S)-1-{3-[amino(imino)methyl]phenyl}pyrrolidin-2-yl)methyl 4-[imino(pyrrolidin-1-yl)methyl]benzoate 2 trifluoroacetate]
IC50 (FXa): 398 nM | paPTT2 (human plasma [5]): 6.03 | half-life at 2 μM [2]: < 1 min | residual ratio (%) of liver S9 fraction 30 min later [3]: 80% | IC50 [4]: > 100000 nM

N=C(N)c1cccc(N2CCC[C@@H]2COC(=O)c2ccc(C(=N)N3CCCC3)cc2)c1 [compound of Ex. 23, ((2R)-1-{3-[amino(imino)methyl]phenyl}pyrrolidin-2-yl)methyl 4-[imino(pyrrolidin-1-yl)methyl]benzoate 2 trifluoroacetate]
half-life at 2 μM [2]: 0.2 min | residual ratio (%) of liver S9 fraction 30 min later [3]: 76%

CC(=N)N1CCC(Oc2ccc(C(=O)OC[C@@H]3CCCN3c3cccc(C(=N)N)c3)cc2)CC1 [compound of Ex. 24, ((2S)-1-{3-[amino(imino)methyl]phenyl}pyrrolidin-2-yl)methyl 4-[(1-ethanimidoylpiperidin-4-yl)oxy]benzoate 2 trifluoroacetate]
half-life at 2 μM [2]: 0.5 min | residual ratio (%) of liver S9 fraction 30 min later [3]: 92%
